Key:
allergic inflammation = assay: LPS-induced asthma mouse model; assay type: in vivo, BABL/c mice
Description: FIG. 25 Lunasin-treated mice have reduced allergic inflammation in a mouse model of asthma. In LPS-induced asthma model BABL/c mice were sensitized intranasally with 0.1 μg of LPS at day 0, 1, and 2 with (LS) or without (Ctrl) lunasin peptide at 4 mg, and then challenged with 50 μg of OVA on days 19, 20 and 21. Another group of mice (LC) was sensitized as the Ctrl group followed by challenging with OVA in the presence of lunasin at 4mg. The total cell numbers (A) and differential cell numbers of eosinophils (B) were counted from the BAL fluid. Data are presented as mean±SD from 3 mice in each group. *,P<0.05; ns not-significant p>0.05. (C) Cells from draining lympho nodes (mediastinal) were stimulated with OVA, and the levels of IL-4 production in the supernatants were evaluated using ELISA. Data are presented as mean ±SD from 3 mice in each group. ***, P<0.005; ns, not-significant, p>0.05.
In LPS-induced asthma model, BABL/c mice were sensitized intranasally with 0.1 μg of LPS at day 0, 1, and 2 with (LS) or without (Ctrl) lunasin peptide at 4 mg, and then challenged with 50 ug of OVA on days 19, 20, and 21. […] The total cell numbers (A) and differential cell numbers of eosinophils (B) were counted from the BAL fluid. […] (C) Cells from draining lympho nodes (mediastinal) were stimulated with OVA, and the levels of IL-4 production in the supernatants were evaluated using ELISA. […]

human primary NK cells [1] = assay: Gene expression by primary NK cells (real time qPCR, Taqman Assay); assay type: cell-based
Excerpt: FIG. 3 Synergistic effects of lunasin and cytokines on gene expression by human primary NK cells. […] One day following the stimulation, the cell pellets were resuspended in Trizol Reagents for total RNA extraction. The first-strand cDNA was synthesized followed by real time qPCR using Taqman Assay with primers for IFNγ(IFNG), granzyme B (GZMB), granulysin (GNLY), chemokine (C-C motif) ligand 3 or CCL3 (CCL3), CCL4 (CCL4). Granulocyte-macrophage colony-stimulating factor or GM-CSF (CSF2) TGFβ (TGFB) and TGFβ receptor (TGFBR2) in ABI 7300 (Applied Biosystems by Life Technologies, Carlsbad CA) Data are presented as mean±SD from 2 duplicates. Results shown are representative over 5 different normal controls. […]
One day following the stimulation, the cell pellets were resuspended in Trizol Reagents for total RNA extraction. The first-strand cDNA was synthesized followed by real time qPCR using Taqman Assay with primers for IFNγ (IFNG), granzyme B (GZMB), granulysin (GNLY), chemokine (C-C motif) ligand 3 or CCL3 (CCL3), CCL4 (CCL4), Granulocyte-macrophage colony-stimulating factor or GM-CSF (CSF2), TGFβ (TGFB) and TGFβ receptor (TGFBR2) in ABI 7300 (Applied Biosystems by Life Technologies, Carlsbad, Calif.). Data are presented as mean±SD from duplicates. Results shown are representative over 5 different normal controls.
Following 1, 2, and 3 days of stimulation, the cell pellets were lysed in Trizol Reagents for total RNA extraction. The first-strand cDNA was synthesized followed by real time qPCR using Taqman Assay with primer for TGFB1 and TGFBR2 in ABI 7300. Results are presented as mean±SD from duplicates. […]
Freshly isolated human NK cells from peripheral blood mononuclear cells (PBMCs) of normal control using positive selection with CD56 magnetic beads (Miltenyi Biotec, Auburn, Calif.) were stimulated with medium only (−), IL-12 (10 ng/ml) or IL-12 (10 ng/ml)+lunasin (5 μM) for 1 day. The cell pellets were lysed in Trizol Reagents for total RNA extraction. The first-strand cDNA was synthesized followed by real time qPCR using Taqman Assay with primer for inhibitory receptors KIR3DL1 (upper panel) and KIR3DL2 (lower panel) in ABI 7300.

[2] = tested on: peripheral blood mononuclear cells (PBMCs); CD3 negative and CD56 positive NK cell populations; assay: Intracellular cytokine staining of IFNγ in stimulated PBMCs of normal controls (flow cytometry); assay type: cell-based, human; details: 1 day
Description: (§1) FIG. 1 IFNγ production by primary NK cells following stimulation. Human primary NK cells were isolated from peripheral blood mononuclear cells (PBMCs) of normal controls using positive selection with CD56 magnetic beads (Miltenyi Biotec Auburn. CA). […] At the last 6 hrs of stimulation, golgistop (monensin) was added to block the secretion of IFNγ. Stimulated PBMCs were surface stained with FITC-conjugated CD3 and PE-congugated CD56 monoclonal antibodies (BD), washed, fixed, and permeabilized. After washing, cells were incubated with APC-conjugated anti IFNγ monoclonal antibody. Expression of IFNγ was evaluated on 5000 events of gated CD3 negative and CD56 positive NK cell populations. The % of NK populations producing IFNγ is labeled at the upper right quadrant of the dot plot. (B) IFNγ production in the supernatants. […] The cell pellets from (B) were analyzed for gene expression using qPCR with Taqman Assay primers. […]
Following 1 day of stimulation, distinct cell populations that respond to stimulation were evaluated using intracellular cytokine staining for IFNγ production. […]
Aliquots of PBMCs isolated from healthy volunteer donors were cryopreserved in liquid nitrogen for the following assays. […] Expression of IFNγ was evaluated on 5000 events of gated CD3 negative and CD56 positive NK cell populations. […] The cell pellets were analyzed for gene expression using qPCR with Taqman Assay primers. […]

[3] = tested on: NK cells isolated from lungs; assay: Ifng gene expression in lung NK cells of mice gavaged with lunasin; assay type: in vivo, Balb/c mice; details: 4 mg lunasin by gavage for 3 consecutive days
Description: FIG 24 Gene expression of Ifng from mice treated with lunasin. Balb/c mice were gavaged with […] of water only (H2O) or 4 mg of lunasin in […] water (Lunasin) for 3 consecutive days. One day after the last gavage. mice were sacrificed to collect the lungs. NK cells were isolated from lungs of each mouse using positive selection with DX5 magnetic beads (Miltenyi Biotec) followed by RNA extraction, cDNA synthesis and real time qPCR using Taqman assay primers (ABI). Gene expression for IFNg (Ifng) from lungs is presented as mean±SD from 2 mice in each group.
Balb/c mice were gavaged with 200 μl of water only (H2O) or 4 mg of lunasin in 200 μl water (Lunasin) for 3 consecutive days. One day after the last gavage, mice were sacrificed to collect the lungs and spleens. NK cells were isolated from each lung and spleen using positive selection with DX5 magnetic beads (Miltenyi Biotec) followed by RNA extraction, cDNA synthesis and real tune qPCR using Taqman assay primers (ABE). Gene expression for Ifng from lungs (upper panel) and spleens (lower pannel) is presented as mean±SD from 2 mice in each group.

human primary NK cells [4] = assay: IFNγ production in supernatants of purified NK cells (ELISA); assay type: cell-based; details: 1 day
Description: as §1
FIG. 7 Dose-dependent effects of lunasin on IFNγ production, Human NK cells isolated as described in FIG. 1 were stimulated with IL-12 at 1 or 10 ng/ml in the absence (A) or presence (B) of various concentrations of lunasin. One day following stimulation, The production of IFNg in the supernatants was determined using ELISA. […]
One day following stimulation. The production of IFNg in the supernatants was determined using ELISA. […]

[5] = boiling; cited from earlier work
[6] = tested on: acetylation of histone H3 and H4; details: extracted from autoclaved soybean products or blood of rats fed LES; cited from earlier work
[7] = cited from earlier work
mouse NK cells = assay: IFNγ produced by NK cells from tumor-bearing mice with or without etoposide chemotherapy (ELISA); assay type: cell-based; details: reduced Stat4; mouse IL-12 2 ng/ml or human IL-2 50 units/ml, lunasin 20 μM; 1 day
Description: Mouse NK cells were positively selected from spleens of tumor-bearing mice with (+Eto) or without (−Eto) chemotherapeutic drug etoposide. Isolated NK cells were stimulated with mouse IL-12 at 2 ng/ml with (+) or without (−) lunasin peptide (A) or human IL-2 at 50 units/ml with (+) or without (−) lunasin at 20 μM (B). The production of IFNγ in the supernatant after 1 day of stimulation was determined using ELISA. Results are presented as mean±SD from 3 mice. ND is not detectable.

Molecule | production of IL-4 (allergic inflammation; draining lymph node cells stimulated with OVA, ELISA) | cell counts in the bronchoalveolar lavage (BAL) fluid (allergic inflammation; lunasin 4 mg intranasal) | CCL3 gene expression (human primary NK cells [1]; 1 day) | CCL4 gene expression (human primary NK cells [1]; 1 day) | CSF2 (GM-CSF) gene expression (human primary NK cells [1]; 1 day) | GMT gene expression (human primary NK cells [1]; 1 day, lunasin alone) | IFNG gene expression (human primary NK cells [1]; human cells, qPCR) | IFNγ intracellular staining by cell population (NK, CD4 and CD8 T) [2] | gene expression of Ifng in the lung [3] | production of IFNγ in the supernatants (human primary NK cells [4]) | heat stability [5] | bioactivity after autoclaving or feeding (inhibiting acetylation of histone H3 and H4) [6] | distribution of gavaged lunasin ([7]; gavage) | lunasin levels in the blood after oral consumption ([7]; oral) | survival of digestion in the gastrointestinal tract ([7]; oral) | GZMB (granzyme B) gene expression (human primary NK cells [1]; 1 day, lunasin 20 μM, compared to cytokine alone) | IFNγ production by NK cells from tumor-bearing mice following chemotherapy (+etoposide) (mouse NK cells)
lunasin | reduced production of IL-4 | lower cell counts | sufficient to up-regulate | sufficient to up-regulate | sufficient to up-regulate | no effects | moderate effects | NK but not CD4 or CD8 T populations respond | increased gene expression of Ifng | moderate effects | heat-stable | still active | can be found in the lung and blood | Significant levels of lunasin could be detected in the blood | survives digestion in the gastrointestinal tract |  | 
IL-12 (protein, UniProt P43431 23-215; P43432 23-335, looked up) Interleukin-12 subunit alpha: RVIPVSGPARCLSQSRNLLKTTDDMVKTAREKLKHYSCTAEDIDHEDITRDQTSTLKTCLPLELHKNESCLATRETSSTTRGSCLPPQKTSLMMTLCLGSIYEDLKMYQTEFQAINAALQNHNHQQIILDKGMLVAIDELMQSLNHNGETLRQKPPVGEADPYRVKMKLCILLHAFSTRVVTINRVMGYLSSA Interleukin-12 subunit beta: MWELEKDVYVVEVDWTPDAPGETVNLTCDTPEEDDITWTSDQRHGVIGSGKTLTITVKEFLDAGQYTCHKGGETLSHSHLLLHKKENGIWSTEILKNFKNKTFLKCEAPNYSGRFTCSWLVQRNMDLKFNIKSSSSSPDSRAVTCGMASLSAEKVTLDQRDYEKYSVSCQEDVTCPTAEETLPIELALEARQQNKYENYSTSFFIRDIIKPDPPKNLQMKPLKNSQVEVSWEYPDSWSTPHSYFSLKFFVRIQRKKEKMKETEEGCNQKGAFLVEKTSTEVQCKGGNVCVQAQDRYYNSSCSKWACVPCRVRS |  |  |  |  |  |  |  |  |  |  |  |  |  |  |  | no further induction of GZMB | secreted less IFNγ

— patent US9173923B2, “Modulating innate immune cell activity by lunasin and selected cytokines” (Indiana University Research & Technology Corporation, priority 2011, dated 2015)
